Assay results taken from US20190000847A1, “THERAPEUTIC AGENT FOR A WOUND” (DAIICHI SANKYO COMPANY LIMITED, priority 2015, published 2019).
Like-named read-outs stand apart in the source and are kept apart here.

How the values were obtained:
db/db mice [1] = test: Test Example 2: wound healing experiment, full thickness skin wound; assay type: in vivo; conditions: male db/db mice; for number of days required for 50% reduction in the percent wound area / 75% healing rate (proportion of individuals that achieved 75% or more reduction in the percent wound area at day 14) / area under the curve (AUC) of the percent wound area: full thickness skin wound; for number of days required for 50% reduction in the percent wound area / 75% healing rate (proportion of individuals that achieved 75% or more reduction in the percent wound area at day 14): compound B 0.15 mM dropwise; for number of days required for 50% reduction in the percent wound area: bFGF sprayed five times (approx. 30 μg), negative control 11.0 days (FIG. 4B); for 75% healing rate (proportion of individuals that achieved 75% or more reduction in the percent wound area at day 14): bFGF spray, negative control 16.7% (FIG. 4C); for area under the curve (AUC) of the percent wound area: 0.15 mM dropwise
Experimental: A positive control bFGF (trafermin (genetic recombination) formulation, Fiblast(trademark) spray) approved as a therapeutic agent for pressure ulcer and skin ulcer was sprayed five times (approximately 30 μg was administered per 6 cm in diameter) to the wound site from approximately 5 cm apart according to the dose regimen. […] The test was conducted with 6 animals per group.

db/db mice [2] = conditions: male db/db mice, 8 mm full thickness skin wound
Experimental: A full thickness skin wound was prepared on the backs of 9-week-old male db/db mice. The back of each mouse was shaved with an electric shaver under isoflurane anesthesia, and a full thickness skin wound of 8 mm in diameter was created on the back with a disposable biopsy punch. Compound A was administered dropwise (0.04 mL per wound site) at a concentration of 0.5 mM to the wound site once a day over 4 days from the wound creation date and protected with a dressing (Tegaderm Transparent Dressing). The negative control used was a test substance solubilizing solvent (10% Lutrol F127, 2% propylene glycol, 20 mM Tris buffer (pH 8.5)). 1, 4, 7, 9, 11, 15, and 18 days after the wound creation date, the wound site was photographed with a digital camera, and the wound area was calculated using image analysis software. When the wound area of the wound creation date was defined as 100%, the area at each day of photographing was calculated in terms of the percentage (%) of the area of the wound creation date. The test was conducted with 8 animals per group.

SD rats = conditions: male SD rats
Experimental: Pressure ulcer was created by pressure load on the right third trochanters of 8-week-old male SD rats. The skin on the right third trochanter of each rat was shaved with an electric shaver. A pressure of 902.3 to 911.2 g/cm^2 was loaded on the right third trochanter for 24 hours under anesthesia with pentobarbital and allobarbital. 2 days after cancellation of the pressure load, necrotic tissues were surgically removed under isoflurane anesthesia. When the necrotic tissue removal date was defined as day 1, compound A was administered dropwise (0.02 to 0.06 mL per wound site) at a concentration of 0.5 mM to the wound site once a day and protected with gauze and a waterproof film. The negative control used was a test substance solubilizing solvent (10% Lutrol F127, 2% propylene glycol, 20 mM Tris buffer (pH 8.5)). The major axis and minor axis of the wound surface were measured every day with a vernier caliper, and the wound area (major axis×minor axis) was calculated. When the wound area of day 1 was defined as 100%, the calculated area at each day was calculated in terms of the percentage (%) of the area of the wound creation date. The test was conducted with 10 animals per group.

Row | Compound | number of days required for 50% reduction in the percent wound area (db/db mice [1]) | 75% healing rate (proportion of individuals that achieved 75% or more reduction in the percent wound area at day 14) (db/db mice [1]) | time-dependent change in the percent wound area (db/db mice [2]; 0.5 mM dropwise 0.04 mL per wound site once a day over 4 days, days 1-18, vs negative control (FIG. 1)) | area under the curve (AUC) of the percent wound area (db/db mice [2]; 0.5 mM dropwise once a day over 4 days, vs negative control (FIG. 2)) | time dependent change in the percent wound area (SD rats; pressure ulcer on right third trochanter, 0.5 mM dropwise 0.02 to 0.06 mL per wound site once a day, vs negative control (FIG. 5)) | number of days required for healing (SD rats; pressure ulcer, 0.5 mM dropwise once a day, negative control 25.3 days (FIG. 6B)) | area under the curve (AUC) of the percent wound area (SD rats; pressure ulcer, 0.5 mM dropwise once a day, vs negative control (FIG. 6A)) | time dependent change in the healing rate (complete healing rate) (SD rats; pressure ulcer, 0.5 mM dropwise once a day, vs negative control (FIG. 6C)) | time dependent change in the percent wound area (db/db mice [1]; 8 mm full thickness skin wound, 0.15 mM dropwise 0.04 mL per wound site at days 1, 2, 4, 7, 10, 14, 17, 22, vs negative control (FIG. 3)) | area under the curve (AUC) of the percent wound area (db/db mice [1]; compared with negative control group (FIG. 4A)) | area under the curve (AUC) of the percent wound area (db/db mice [1]; compared with positive control bFGF administration group (FIG. 4A))
1 | bFGF: positive control bFGF (trafermin (genetic recombination) formulation, Fiblast spray) approved as a therapeutic agent for pressure ulcer and skin ulcer | 10.2 days | 50.0% |  |  |  |  |  |  |  |  | 
2 | Cc1nc(CC2CCN(c3ccc(-c4ccc(CO)cc4)cc3)CC2)nc(C(=O)NCC(=O)O)c1O [Compound A] |  |  | reduced the percent wound area at each point of evaluation, as compared with the negative control | low value as compared with AUC of the negative control group | reduced the percent wound area at each point of evaluation, as compared with the negative control | 21.5 days | low value as compared with AUC of the negative control group | significant elevation in the healing rate as compared with the negative control group |  |  | 
3 | Cc1nc(CC2CCN(c3ccc(-c4ccc(C[C@H](C)O)cc4)cc3)CC2)nc(C(=O)NCC(=O)O)c1O [Compound B, [({5-Hydroxy-2-[(1-{4′-[(2S)-2-hydroxypropyl]biphenyl-4-yl}piperidin-4-yl)methyl]-6-methylpyrimidin-4-yl}carbonyl)amino]acetic acid] | 9.2 days | 83.3% |  |  |  |  |  |  | reduced the percent wound area at each point of evaluation, as compared with the negative control | low value as compared with AUC of the negative control group | low value as compared with the positive control bFGF administration group
